Data from ChEMBL document CHEMBL6096733, “Structure-Based Virtual Screening Identifies 2-Arylthiazole-4-Carboxylic Acids as a Novel Class of Nanomolar Affinity Ligands for the CaMKIIα Hub Domain” (J Med Chem, 2025).

How the values were obtained:
[1] = molecular target: T1, Calcium/calmodulin-dependent protein kinase type II subunit alpha (Rattus norvegicus, UniProt P11275); assay: Inhibition of […] binding to CaMKIIalpha in rat brain cortical membrane assessed as inhibition constant incubated for 1 hrs by TopCount NXT microplate scintillation counter analysis; type: cell membranes, Cortex
T1 sequence (P11275 whole entry, the tested form may be a part): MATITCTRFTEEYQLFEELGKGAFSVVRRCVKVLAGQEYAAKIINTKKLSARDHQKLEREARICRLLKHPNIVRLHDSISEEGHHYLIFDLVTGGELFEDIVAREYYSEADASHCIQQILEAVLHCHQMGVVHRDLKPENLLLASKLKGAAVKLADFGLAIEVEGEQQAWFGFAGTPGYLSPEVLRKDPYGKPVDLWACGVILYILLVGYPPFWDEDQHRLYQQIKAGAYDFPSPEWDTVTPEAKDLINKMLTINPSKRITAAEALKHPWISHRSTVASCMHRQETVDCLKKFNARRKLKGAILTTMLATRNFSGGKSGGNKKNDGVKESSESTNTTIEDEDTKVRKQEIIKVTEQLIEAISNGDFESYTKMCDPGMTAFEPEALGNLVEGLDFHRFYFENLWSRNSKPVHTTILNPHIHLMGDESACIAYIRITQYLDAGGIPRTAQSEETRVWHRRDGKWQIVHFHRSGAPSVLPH

[2] = molecular target: T2, Calcium/calmodulin-dependent protein kinase type II subunit alpha (Homo sapiens, UniProt Q9UQM7); assay: Induction of thermal stabilization of recombinant wildtype human CAMKIIalpha hub domain (345 to 475 residues) extracted from Escherichia coli BL21 (DE3) cells by differential scanning fluorimetric analysis; settings: dose 0.625-320 µM
T2 sequence (Q9UQM7 whole entry, the tested form may be a part): as the sequence (P11275 whole entry, the tested form may be a part) above, with N324S counted along it

[3] = molecular target: T2, Calcium/calmodulin-dependent protein kinase type II subunit alpha; assay: Induction of thermal stabilization of recombinant wildtype human CAMKIIalpha hub domain (345 to 475 residues) extracted from Escherichia coli BL21 (DE3) cells assessed as change in melting temperature at 0.625 to 320 microM by differential scanning fluorimetric analysis; settings: dose 0.625-320 µM
[4] = molecular target: T1, Calcium/calmodulin-dependent protein kinase type II subunit alpha; assay: Inhibition of [3H]NCS-382 binding to CaMKIIalpha in rat brain cortical membrane assessed as inhibition constant incubated for 1 hrs by TopCount NXT microplate scintillation counter analysis; type: cell membranes, Cortex

Ki ([1]; read-out: Ki) | SMILES | other results
2.9 µM | Cc1ccc(-c2nc(CC(=O)O)cs2)cc1 | –
0.1 µM | Cc1cccc(C)c1-c1nc(C(=O)O)cs1 | Activity [2]: Dose-dependent-effect; ΔTm [3]: 18 °C
> 10 µM | O=C(O)Cc1csc(Cc2ccccc2)n1 | –
2.7 µM | O=C(O)c1csc(-c2cccc(O)c2)n1 | –
– | O=C(O)c1csc(-c2ccc(C(F)(F)F)cc2)n1 | Ki ([4]; read-out: Ki): 10.3 µM
9.9 µM | O=C(O)Cc1csc(-c2cccc3ccccc23)n1 | –
1.6 µM | O=C(O)c1csc(-c2ccc(Cl)c(Cl)c2)n1 | –
9.9 µM | COc1cccc(-c2nc(C(=O)O)cs2)c1 | –
– | COc1ccccc1-c1nc(C(=O)O)cs1 | Ki ([4]; read-out: Ki): 3.1 µM
– | O=C(O)C1=CC(O)CC1 (configuration not stated) | Ki ([1]; read-out: pKi (converted)): 0.126 µM
2.3 µM | Cc1ccc(-c2nc(C(=O)O)cs2)cc1 | Ki ([1]; read-out: pKi (converted)): 12.6 µM
> 100 µM | OC1(c2csc(-c3c(Cl)cccc3Cl)n2)COC1 | –
– | O=C(O)c1csc(-c2ccccc2Br)n1 | Ki ([4]; read-out: Ki): 0.18 µM; Ki ([4]; read-out: pKi (converted)): 0.158 µM
> 100 µM | O=C(O)c1cnc(-c2ccccc2)s1 | –
0.05 µM | O=C(O)c1csc(-c2c(Br)cccc2Br)n1 | Activity [2]: Dose-dependent-effect; ΔTm [3]: 22 °C
– | O=C(O)c1csc(-c2ccccc2I)n1 | Ki ([4]; read-out: Ki): 0.16 µM
7.2 µM | COc1ccc(-c2nc(C(=O)O)cs2)cc1 | –
11.5 µM | O=C(O)c1csc(-c2ccccc2)n1 | –
3.1 µM | O=C(O)Cc1csc(-c2ccccc2)n1 | –
12.6 µM | O=C(O)c1csc(-c2ccc(O)cc2)n1 | –
> 10 µM | O=C(O)c1csc(-c2c(C(F)(F)F)cccc2C(F)(F)F)n1 | –
